According to patent US12534451B2, “Small molecule modulators of PanK” (St. Jude Children's Research Hospital, priority 2019, dated 2026):

Target: human PANK3 (Homo sapiens (Human), UniProt Q9H999)
Assay: PANK activity assay (radiochemical, D-[1-14C]pantothenate)
Type: biochemical
Conditions: 5 nM human PANK3, 2.5 mM ATP, 45 μM pantothenate, 10 min at 37° C.; average ± data range
Experimental: The PanK activity and Surface Plasmon Resonance assays were conducted as explained in the literature.
If the IC^50 was determined to be in the nM range then the assay was repeated in the presence of 0-1 μM or 0-0.1 μM compound to more precisely determine the IC^50. All the experiments were repeated twice in duplicate and the data were an average ±data range.
The experiments mimicking the mixture of ligands present in vivo were performed under different conditions. […] The IC^50 values for the structure-activity study were calculated by fitting the inhibition data to a one-site model of the Michaelis-Menten equation. […] Thus, the data were fit to Morrison's quadratic equation (GraphPad software) that accounts for the impact of enzyme inhibitor binding on the free concentration of inhibitor.

human PANK3, sequence (Q9H999 whole entry): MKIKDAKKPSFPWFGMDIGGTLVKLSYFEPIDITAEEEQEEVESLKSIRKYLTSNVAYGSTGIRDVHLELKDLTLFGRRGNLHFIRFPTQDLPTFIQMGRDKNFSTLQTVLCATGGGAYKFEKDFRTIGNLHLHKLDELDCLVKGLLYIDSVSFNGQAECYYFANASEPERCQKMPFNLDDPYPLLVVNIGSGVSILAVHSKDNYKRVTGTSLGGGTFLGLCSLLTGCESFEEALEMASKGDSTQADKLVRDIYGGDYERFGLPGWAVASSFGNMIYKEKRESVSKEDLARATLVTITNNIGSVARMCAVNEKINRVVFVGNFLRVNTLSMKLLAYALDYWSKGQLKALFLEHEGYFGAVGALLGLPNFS

SMILES	IC50
C[C@@H]1CN(c2nc3cc(F)cnc3o2)CCN1C(=O)Cc1ccc(C2CC2)cc1 [PZ-4470]	3.88 ± 0.24 nM
O=C(Cc1ccc(C2CC2)cc1)N1CCN(c2nc3ccccc3[nH]2)CC1 [PZ-4312]	987 ± 476 nM
Cc1ccc2oc(N3CCN(C(=O)Cc4ccc(C5CC5)cc4)CC3)nc2n1 [PZ-4364]	77.3 ± 8.2 nM
O=C(Cc1ccc(C2CC2)cc1)N1CCN(c2nc3cccnc3o2)CC1 [PZ-4301]	52.9 ± 6.4 nM
N#Cc1cnc(N2CCN(C(=O)Cc3ccc(C4CC4)cc3)CC2)cn1 [PZ-4284]	27 ± 4 nM
CCS(=O)(=O)Nc1ccc(CC(=O)N2CCN(c3ccc(C#N)nn3)CC2)cc1 [PZ-4215]	4 ± 0.3 nM
O=C(Cc1ccc(C2CC2)cc1F)N1CCN(c2nc3ccc(F)cc3o2)CC1 [PZ-4383]	3.4 ± 0.33 nM
CN(C)c1ccc(CC(=O)N2CCN(c3nc4ncc(F)cc4o3)CC2)cc1 [PZ-4467]	2.62 ± 0.18 nM
O=C(Cc1ccc(Cl)cc1)N1CCN(c2nc3ncc(F)cc3o2)CC1 [PZ-4363]	37.5 ± 2.4 nM
O=C(Cc1ccc(C2CC2)cc1)N1CCN(c2nc3c(F)cccc3s2)CC1 [PZ-4299]	7.2 ± 1.3 nM
CS(=O)(=O)Nc1ccc(CC(=O)N2CCN(c3ccc(Cl)nn3)CC2)cc1 [PZ-4140, N-(4-(2-(4-(6-chloropyridazin-3-yl)piperazin-1-yl)-2-oxoethyl)phenyl)methanesulfonamide]	3.8 ± 0.1 nM
O=C(Cc1ccc(C2CC2)cc1)N1CCN(c2nc3ncc(Cl)cc3o2)CC1 [PZ-4359]	1.23 ± 0.17 nM
CC(C)c1ccc(CC(=O)N2CCN(c3nc4cc(F)cnc4o3)C[C@H]2C)cc1 [PZ-4471]	0.88 ± 0.09 nM
O=C(Cc1ccc(C2CC2)cc1)NCC1(CCl)CN(c2ccc(Cl)nn2)C1 [PZ-4469, N-((3-(chloromethyl)-1-(6-chloropyridazin-3-yl)azetidin-3-yl)methyl)-2-(4-cyclopropylphenyl)acetamide]	5.4 ± 0.42 nM
CC(C)c1ccc(CC(=O)NCC2(CCl)CN(c3ccc(Cl)nn3)C2)cc1 [PZ-4468]	1.2 ± 0.13 nM
CS(=O)(=O)Nc1ccc(CC(=O)N2CCN(c3nc4cccnc4s3)CC2)cc1 [PZ-4321]	5.67 ± 0.39 nM
CC(C)c1ccc(CC(=O)N2CCN(c3nc4cc(F)cnc4o3)[C@@H](C)C2)cc1 [PZ-4475]	0.76 ± 0.05 nM
CC(C)c1ccc(CC(=O)NCC2(CCl)CN(c3nc4cc(F)cnc4o3)C2)cc1 [PZ-4473]	7.51 ± 0.62 nM
CS(=O)(=O)Nc1ccc(CC(=O)N2CCN(c3nc4ncc(F)cc4o3)CC2)cc1 [PZ-4357]	1.95 ± 0.25 nM
O=C(Cc1ccc(C2CC2)cc1)N1CCN(c2nc3ccccc3o2)CC1 [PZ-4305]	173 ± 48.5 nM
O=C(Cc1ccc(C2CC2)cc1F)N1CCN(c2nc3ncc(Cl)cc3o2)CC1 [PZ-4361]	0.81 ± 0.15 nM
CN(C)c1ccc(CC(=O)N2CCN(c3nc4c(F)cccc4s3)CC2)cc1 [PZ-4318]	183 ± 71 nM
O=C(Cc1ccc(C2CC2)cc1F)N1CCN(c2nc3ncc(F)cc3o2)CC1 [PZ-4352]	0.86 ± 0.078 nM
O=C(Cc1ccc(C2CC2)cc1)NCC1(CCl)CN(c2nc3cc(F)cnc3o2)C1 [PZ-4472]	21.8 ± 1.78 nM
CN(C)c1ccc(CC(=O)N2CCN(c3nc4cccnc4o3)CC2)cc1 [PZ-4319]	346 ± 100 nM
O=C(Cc1ccc(C2CC2)c(F)c1)N1CCN(c2nc3ncc(Cl)cc3o2)CC1 [PZ-4360]	5.6 ± 0.88 nM
O=C(Cc1ccc(C2CC2)c(F)c1)N1CCN(c2nc3ncccc3o2)CC1 [PZ-4348]	5.7 ± 0.49 nM

SMILES	IC50
CC(C)c1ccc(CC(=O)N2CCN(c3nc4cc(F)cnc4o3)CC2)cc1 [PZ-4462]	1.37 ± 0.16 nM
O=C(Cc1ccc(C2CC2)cc1)N1CCN(c2ncc3ccsc3n2)CC1 [PZ-4479]	713 ± 294 nM
CN(C)c1ccc(CC(=O)N2CCN(c3nc4cccnc4s3)CC2)cc1 [PZ-4317]	391 ± 129 nM
CS(=O)(=O)Nc1ccc(CC(=O)N2CCN(c3nc4cccnc4o3)CC2)cc1 [PZ-4323]	9.9 ± 1.6 nM
C[C@H]1CN(C(=O)Cc2ccc(C3CC3)cc2)CCN1c1nc2cc(F)cnc2o1 [PZ-4474]	1.37 ± 0.14 nM
O=C(Cc1ccc(C2CC2)cc1)N1CCN(c2nc3cc(F)cnc3o2)CC1 [PZ-4386]	2.1 ± 0.21 nM
CC(C)c1ccc(NC(=O)N2CCN(c3nc4c(F)cc(F)cc4s3)CC2)cc1 [PZ-4434]	1.04 ± 0.06 nM
CN(C)c1ccc(CC(=O)N2CCN(c3ccc(C#N)nn3)CC2)cn1 [PZ-4069, 6-(4-(2-(6-(dimethylamino)pyridin-3-yl)acetyl)piperazin-1-yl)pyridazine-3-carbonitrile]	440 ± 45 nM
CC(C)c1ccc(CC(=O)N2CCN(c3nc4ncc(F)cc4o3)CC2)cc1 [PZ-4435]	0.33 ± 0.02 nM
O=C(Cc1ccc(C2CC2)cc1F)N1CCN(c2nc3ncccc3o2)CC1 [PZ-4349]	2.1 ± 0.26 nM
C[C@@H]1CN(c2ccc(Cl)nn2)CCN1C(=O)Cc1ccc(N(C)C)cc1 [PZ-4112]	39.7 ± 4.7 nM
CN(c1ccc(CC(=O)N2CCN(c3ccc(Cl)nn3)CC2)cc1)S(C)(=O)=O [PZ-4200]	120 ± 11.2 nM
O=C(Nc1ccc(C2CC2)cc1F)N1CCN(c2nc3c(F)cc(F)cc3s2)CC1 [PZ-4433]	1.79 ± 0.09 nM
O=C(Cc1ccc(C2CC2)c(F)c1)N1CCN(c2nc3cccnc3o2)CC1 [PZ-4343]	49 ± 3 nM
CC(C)c1ccc(CC(=O)N2CCN(c3nc4cccnc4s3)CC2)cc1 [PZ-4432]	3.95 ± 0.26 nM
CN(C)c1ccc(CC(=O)N2CCN(c3nc4ccccc4s3)CC2)cc1 [PZ-4290]	370 ± 47 nM
O=C(Cc1ccc(C2CC2)cc1)N1CCN(c2nc3ncc(F)cc3o2)CC1 [PZ-4350, 2-(4-cyclopropylphenyl)-1-(4-(6-fluorooxazolo[4,5-b]pyridin-2-yl)piperazin-1-yl)ethenone]	1.1 ± 0.12 nM
CC(C)c1ccc(CC(=O)N2CCN(c3ncc4ccsc4n3)CC2)cc1 [PZ-4478]	125 ± 19.2 nM
O=C(Cc1ccc(C2CC2)cc1)N1CCN(c2nc3cc(F)cnc3o2)CC1 [PZ-4463]	10.3 ± 0.55 nM
O=C(Cc1ccc(C2CC2)cc1F)N1CCN(c2nc3cccnc3o2)CC1 [PZ-4344]	7.6 ± 0.48 nM
O=C(Cc1ccc(C2CC2)cc1)N1CCN(c2nc3cc(F)ccc3o2)CC1 [PZ-4303]	54 ± 6.4 nM
C[C@H]1CN(c2ccc(Cl)nn2)CCN1C(=O)Cc1ccc(N(C)C)cc1 [PZ-4111]	11.1 ± 0.7 nM
CC(=O)Nc1ccc(CC(=O)N2CCN(c3ccc(C#N)nn3)CC2)cc1 [PZ-4070, N-(4-(2-(4-(6-cyanopyridazin-3-yl)piperazin-1-yl)-2-oxoethyl)phenyl)acetamide]	65 ± 9.8 nM
CC(=O)OCC1(CNC(=O)Cc2ccc(C3CC3)cc2)CN(c2ccc(Cl)nn2)C1 [PZ-4510]	1110 ± 852 nM
O=C(Oc1ccc(C2CC2)cc1)N1CCN(c2nc3ncc(F)cc3o2)CC1 [PZ-4436]	2 ± 0.18 nM
O=C(Cc1ccc(C2CC2)cc1)NCC1(CO)CN(c2ccc(Cl)nn2)C1 [PZ-4511, N-((1-(6-chloropyridazin-3-yl)-3-(hydroxymethyl)azetidin-3-yl)methyl)-2-(4-cyclopropylphenyl)acetamide]	606 ± 237 nM

System: Human C3A [HepG2/C3A] cells
Assay: Cellular total CoA determination in C3A cells
Type: cell-based
Conditions: 24 hrs of treatment
Experimental: Human C3A [HepG2/C3A, derivative of HepG2] cells (ATCC #CRL-10741) were purchased from ATCC® and maintained in Eagle's minimum Essential medium (ATCC) supplemented with 2 mM glutamine, 10% fetal bovine serum (FCS, Altanta Biologicals), 50 U/ml penicillin and […] streptomycin. The C3A cell line was confirmed to be mycoplasma-free. Test compounds or vehicle control (DMSO) was added and after 24 hrs of treatment the cells were washed with PBS and harvested and subjected to total CoA determination.
Cultured cells were resuspended in 2 ml cold water to which 500 μl of 0.25M KOH was added, derivatized with monobromobimane (mBBr, Life technologies) and quantified by HPLC. 30 mg of frozen tissue is homogenized in 2 ml of 1 mM KOH and then derivatized with mBBr. The mBBr derivatized samples were fractionated by reverse-phase HPLC using a Gemini C18 3 μm column (150×4.60 mm) from Phenomenex. The chromatography system was a Waters e2695 separation module with a UV/Vis and fluorescence detector and controlled by Empower 3 software. Solvent A was 50 mM potassium phosphate pH 4.6, and solvent B was 100% acetonitrile. Twenty microliters of sample was injected onto the column, and the flow rate was 0.5 ml/min. The HPLC program was the following: starting solvent mixture of 90% A/10% B, 0-2 min isocratic with 10% B, 2-6 min linear gradient from 10% B to 15% B, 6-18 min concave gradient from 15% B to 40% B, 18-23 min isocratic with 40% B, 23-25 min linear gradient from 40 to 10%, and 25-30 min isocratic with 10% B. The UV/vis detector was set at 393 nm, and the fluorescence detector was set with excitation at 393 nm and emission at 470 nm. The elution position of the mBBr-CoA, was determined by comparison with mBBr-CoA prepared from commercial CoA (Avanti Polar Lipids). The areas under the mBBr-derivatized CoA was integrated and compared to known concentrations of the mBBr-CoA standard.

SMILES	C3A CoA% elevation
CS(=O)(=O)Nc1ccc(CC(=O)N2CCN(c3ccc(C(F)(F)F)nn3)CC2)cc1 [PZ-4295]	140.8%
CS(=O)(=O)Nc1ccc(CC(=O)N2CCN(c3ccc(C#N)nn3)CC2)cc1 [PZ-4202]	183.3%
O=C(Cc1ccc(C2CC2)cc1)N1CCN(c2nc3cccnc3o2)CC1 [PZ-4301]	268.3%
N#Cc1cnc(N2CCN(C(=O)Cc3ccc(C4CC4)cc3)CC2)cn1 [PZ-4284]	448.2%
CCS(=O)(=O)Nc1ccc(CC(=O)N2CCN(c3ccc(C#N)nn3)CC2)cc1 [PZ-4215]	160.9%
O=C(Cc1ccc(C2CC2)cc1)N1CCN(c2nc3c(F)cccc3s2)CC1 [PZ-4299]	228.4%
CS(=O)(=O)Nc1ccc(CC(=O)N2CCN(c3ccc(Cl)nn3)CC2)cc1 [PZ-4140, N-(4-(2-(4-(6-chloropyridazin-3-yl)piperazin-1-yl)-2-oxoethyl)phenyl)methanesulfonamide]	64.4%
CN(C)c1ccc(CC(=O)N2CCN(c3ccc(Cl)nn3)CC2)cc1 [PZ-4061, 1-(4-(6-chloropyridazin-3-yl)piperazin-1-yl)-2-(4-(dimethylamino)phenyl)ethanone]	418.7%
CCS(=O)(=O)Nc1ccc(CC(=O)N2CCN(c3ccc(Cl)nn3)CC2)cc1 [PZ-4216]	54.9%
O=C(Cc1ccc(C2CC2)cc1)N1CCN(c2ccc(C(F)(F)F)nn2)CC1 [PZ-4283, 2-(4-cyclopropylphenyl)-1-(4-(6-(trifluoromethyl)pyridazin-3-yl)piperazin-1-yl)ethanone]	218.2%
CC(=O)Nc1ccc(CC(=O)N2CCN(c3ccc(Cl)nn3)CC2)cc1 [PZ-4071, N-(4-(2-(4-(6-chloropyridazin-3-yl)piperazin-1-yl)-2-oxoethyl)phenyl)acetamide]	185.3%
CN(C)c1ccc(CC(=O)N2CCN(c3ccc(C#N)nn3)CC2)cc1 [PZ-4060, 6-(4-(2-(4-(dimethylamino)phenyl)acetyl)piperazin-1-yl)pyridazine-3-carbonitrile]	230.5%
